According to patent publication US20030143228A1, “Human telomerase reverse transcriptase as a class-II restricted tumor-associated antigen” (Baylor College of Medicine, priority 2001, published 2003):
Entries after “also recorded” stand apart in the source; their conditions may differ.

Columns and labels:
Type in all cases: cell-based, human
HLA-DR7+/hTRT+ LCL cells = assay: T-cell direct responses to hTRT-positive cells
Experimental: The T-cells (5×10^3/well) were co-cultured with the irradiated HLA-DR7+/hTRT+ LCL cells (1×10^4/well) in the presence or absence of the anti-HLA-DR antibody (20 μg/ml). IFN-γ production of the T-cells was monitored by ELISPOT assay and cell proliferation was measured by [^3H]-thymidine incorporation compared with anti-DR sample.

[1] = system: Donor's peripheral blood mononuclear cells (PBMCs); assay: Peptide T-cell proliferation assay with donor PBMC; conditions: peptide 20 μg/ml; positive if cpm at least 2.5 times PBMC without peptide
Experimental: Donor's peripheral blood mononuclear cells (PBMCs) were plated in 96-well plates (Costar) at 200,000 cells/well in AIM-V media (Gibco). Peptides were added into each well at the concentration of 20 μg/ml. After a week of incubation, the culture medium was removed and cells were resuspended in AIM-V media, seeded onto test plates and re-stimulated with autologous irradiated (2,000-6,000 rads) PBMC pulsed with the same peptides used in the primary stimulation (20 μg/ml). On day 2 of the re-stimulation, [^3H]-thymidine (1 uCi/well) was added to the test plates, and its incorporation by T-cells was measured on day 3. […] T-cell clones were established from positive T-cell lines by limiting dilution.
Because Th cells generally prefer to recognize peptides of about 15 residues in length, ten predicted peptides corresponding to promiscuous binding motifs of 15 mer or longer were synthesized and purified (Table 2). Human T-cell responses to these peptides were assessed by isolating PBMC from HLA-typed healthy donors with HLA-DR1, DR3, DR15, or other alleles and seeding them into 96-well plates that were subsequently stimulated with each peptide. After a week of stimulation, the cultures were tested for their capacity to respond to the peptides presented by autologous PBMC.

recombinant hTRT protein = assay: T-cell recognition of natively processed hTRT protein presented by autologous DC
Description: A recombinant hTRT protein and an irrelevant Neu protein were produced and used to pulse PBMC-derived DC. Recombinant hTRT and Neu(extracellular domain)-Fc fusion proteins, were produced in SF9 insect cells by use of a baculovirus expression system (Gibco), purified by affinity binding to Protein A (Sigma), and tested by Western blot analysis with anti-hTRT (Santa Cruz) or anti-Neu (Oncogene) antibodies, respectively.
The T916-specific T-cells, T631-specific T-cells or T672-specific T-cells (2×10^4/well) were stimulated with irradiated autologous PBMC-derived DC (Zhou et al., 1996) (2×10^3/well) pulsed with recombinant hTRT-Fc proteins (1 μg/ml) in the presence or absence of anti-HLA-DR antibodies (20 μg/ml). The T-cell clones were also stimulated with DC pulsed with irrelevant recombinant Neu-Fc proteins (1 μg/ml). Recombinant hTRT Fc fusion proteins and Neu (extracellular domain)-Fc proteins were produced from […], purified with a Protein-A purification kit (Pierce), and confirmed by Western blot analysis with anti-hTRT (Santa Cruz) or anti-Neu (Oncogene) antibodies. 48 hr later, [^3H]-thymidine incorporation of the T-cells was then measured.
The ability of these T-cell clones to recognize naturally processed antigen in the form of recombinant hTRT protein was tested in experiments in which autologous PBMC or DC were used as APC and recombinant hTRT proteins as a source of antigen (FIG. 16).

T-cell clone = assay: Flow cytometric analysis of T-cell clones; conditions: peptide-specific T-cell clone, anti-CD4-FITC / CD8-PE staining
Description: The T-cell clone was double-stained with anti-human CD4-FITC and CD8-PE antibodies or isotype controls (mouse IgG-FITC and IgG-PE) (BD PharMingen). The cells were then examined by flow cytometric analysis (Chen et al., 1997). More than 99% of the T-cell population were CD4-positive. Flow cytometric analysis verified that the T-cell clones were exclusively CD4-positive (FIG. 9A and FIG. 9B). Similar results were obtained from four different T916-specific T-cell clones. Taken together, the findings indicate that HLA-DR7-restricted epitopes reside in clones 8 and 35 and induce hTRT-specific human CD4+ T-cell responses.

[2] = system: peptide-specific CD4+ T-cell clones; assay: Peptide titration of T-cell clones; conditions: autologous PBMCs
Experimental: To evaluate the avidity of hTRT916 and hTRT672 T-cell clones for their ligands, peptide titration curves were generated with autologous PBMCs. The maximal cell proliferation of the hTRT916 T-cell clone was obtained at a peptide concentration of 10 μg/ml, compared with only at a peptide concentration of 1 μg/ml for the hTRT672 T-cell clone (FIG. 7).
Yet further, the avidity of the hTRT631 T-cell clone for its ligand was also evaluated. Peptide titration curves were generated with autologous PBMCs. The half maximal cell proliferation of the hTRT631 T-cell clone was obtained at a peptide concentration of 0.1 μg/ml (FIG. 8).
The effectiveness of antitumor immunotherapy based on CD8+ and CD4+ T-cells depends on the ability of the latter to recognize naturally processed antigen presented by APC. This property depends in turn on correct processing of the epitope in the MHC class II pathway and the avidity of the epitope for its MHC/TCR-complex (Kobayashi, 2000). To determine whether the newly identified peptides were naturally processed antigens, the avidity of the specific T-cell clones for their ligands was evaluated. Peptide titration curves were generated with autologous DC as APC. For peptides hTRT631, hTRT766, hTRT787, the peptide concentrations required to obtain half of the maximal proliferation exceeded 1.0 μM (FIG. 15A-FIG. 15F).

[3] = system: peptide-specific CD4+ T-cell clones; assay: Specificity and MHC restriction of peptide-specific T-cell clones (antibody blocking)
Experimental: The T916-positive T-cell clone, T631-positive T-cell or T672-positive T-cell (2×10^4 cells/well) were re-stimulated with autologous PBMC-derived DC (1×10^3/well) (Zhou et al., 1996) pulsed with T916, T631, T672 or irrelevant 15-mer peptides derived from HER-2 (SEQ.ID.NO.78, LSTDVGSCTLVCPLH) and EBV (SEQ.ID.NO.79, AYFMVFLQTHIFAEV) at the same concentration of 20 μg/ml in the presence of anti-HLA-DR (G46.4), anti-HLA-ABC (class I, G46.2.6), anti-CD4, or anti-CD8 (20 μg/ml, BD PharMingen). 48-72 hr later, GM-CSF release and [^3H]-thymidine incorporation of the T-cells were measured.
Further, antibody blocking assays were used to test whether the T-cell responses to peptides were MHC class II-restricted. […] Flow cytometric analysis of the responses to T-cell clones (FIG. 14A-FIG. 14F) confirmed clones were CD4-positive and CD 8-negative.

[4] = system: T-cells primed by the pool 5-transduced DC; assay: DC-based immunogenetic screening of tumor retrogen library, [3H]-thymidine incorporation; conditions: T-cells 2×10^5, DC 2×10^4
Experimental: cDNA from the mRNA of prostate tumor cells (DU145) were generated by cDNA synthesis kits (CLONTECH). cDNA with sizes of 400 bp or higher were digested with Sau3A I (Bio-Lab) after fractionation with SizeSep™ 400 columns (Amersham Pharmacia Biotech) and inserted into the BamH I-cut pSBFc-DS. Ligated DNA was then transformed into E. coli, and library quality was confirmed by examining dozens of individual clones with different insert sizes and DNA sequences. Individual colonies were then cultured individually and pooled for the isolation of plasmid DNA. Recombinant retroviral retrogen vectors (pools) were generated by transfection of the plasmid DNA pools into packaging cells with GeneJammer (Stratagene). Two or three days later, the culture medium containing the retroviral vectors was harvested, filtered, and then used for DC transduction or stored at −80° C.
DC-based immunogenetic screening approach was used to identify unknown class II-restricted TAA from a tumor retrogen library.
After several rounds of screening of 12,000 individual clones in the library, two sub-pools (5-VI-C and -D) containing genes capable of stimulating CD4+ T-cells were identified. The 40 individual clones in the sub-pools 5-VI-C and -D were individually transduced into autologous CD34+-derived DC. […]

GTAFVQMPAHGLFPW [Peptide T916]
response of peptide-specific CD4+ T-cells to hTRT+/DR7+ LCL (HLA-DR7+/hTRT+ LCL cells; IFN-γ ELISPOT and [3H]-thymidine incorporation): active proliferation and production of INF-γ | effect of anti-HLA-DR antibody on T-cell response to hTRT+/DR7+ LCL (HLA-DR7+/hTRT+ LCL cells; antibody 20 μg/ml): drastically inhibited | response of peptide-specific CD4+ T-cells to hTRT+ LCL (DR3+) (HLA-DR7+/hTRT+ LCL cells; different class II genotype): did not respond | proliferative T-cell responses from the donors' T-cells [1]: elicited proliferative T-cell responses | epitope classification (naturally processed or cryptic) (recombinant hTRT protein): are processed | response of peptide-specific T-cells to irrelevant Neu protein presented by autologous DC (recombinant hTRT protein; Neu-Fc 1 μg/ml): did not respond | recognition of hTRT protein after processing and presentation by autologous APC (recombinant hTRT protein; peptide-specific T-cell clone, DC or PBMC pulsed with recombinant hTRT protein): recognize the hTRT proteins | T-cell population CD4-positive (T-cell clone): More than 99% | peptide concentration at maximal cell proliferation of the T-cell clone [2]: 10 µg/mL | response of T-cells to autologous PBMC pulsed with peptide [3]: dosage-dependent manner | response of the peptide-specific T-cells to irrelevant peptides ([3]; irrelevant 15-mer peptides (HER-2, EBV/EBNA1) or non-corresponding hTRT peptides, 20 μg/ml): did not respond | restriction of T-cell response (antibody blocking) ([3]; peptide-pulsed autologous APC with anti-HLA-DR, anti-HLA class I, anti-HLA-DQ, anti-CD4 or anti-CD8 antibodies): both CD4- and HLA-DR-restricted; also recorded: MHC-II restricted epitopes

B1: clone 8: positive clone of the DU145 tumor retrogen library; ORF encodes a 291 aa hTRT polypeptide (SEQ.ID.NO.3) (nucleic acid)
DNA: ATCCTGGCCAAGTTCCTGCACTGGCTGATGAGTGTGTACGTCGTCGAGCTGCTCAGGTCTTTCTTTTATGTCACGGAGACCACGTTTCAAAAGAACAGGCTCTTTTTCTACCGGAAGAGTGTCTGGAGCAAGTTGCAAAGCATTGGAATCAGACAGCACTTGAAGAGGGTGCAGCTGCGGGAGCTGTCGGAAGCAGAGGTCAGGCAGCATCGGGAAGCCAGGCCCGCCCTGCTGACGTCCAGACTCCGCTTCATCCCCAAGCCTGACGGGCTGCGGCCGATTGTGAACATGGACTACGTCGTGGGAGCCAGAACGTTCCGCAGAGAAAAGAGGGCCGAGCGTCTCACCTCGAGGGTGAAGGCACTGTTCAGCGTGCTCAACTACGAGCGGGCGCGGCGCCCCGGCCTCCTGGGCGCCTCTGTGCTGGGCCTGGACGATATCCACAGGGCCTGGCGCACCTTCGTGCTGCGTGTGCGGGCCCAGGACCCGCCGCCTGAGCTGTACTTTGTCAAGGTGGATGTGACGGGCGCGTACGACACCATCCCCCAGGACAGGCTCACGGAGGTCATCGCCAGCATCATCAAACCCCAGAACACGTACTGCGTGCGTCGGTATGCCGTGGTCCAGAAGGCCGCCCATGGGCACGTCCGCAAGGCCTTCAAGAGCCACGTCTCTACCTTGACAGACCTCCAGCCGTACATGCGACAGTTCGTGGCTCACCTGCAGGAGACCAGCCCGCTGAGGGATGCCGTCGTCATCGAGCAGAGCTCCTCCCTGAATGAGGCCAGCAGTGGCCTCTTCGACGTCTTCCTACGCTTCATGTGCCACCACGCCGTGCGCATCAGGGGCAAGTCCTACGTCCAGTGCCAGGGG
modifications: Human
T-cell response to autologous DC transduced with individual clones [4]: strong T-cell response

B2: clone 35: positive clone of the DU145 tumor retrogen library; ORF encodes a 171 aa hTRT polypeptide (SEQ.ID.NO.4) (nucleic acid)
DNA: ATCCCGCAGGGCTCCATCCTCTCCACGCTGCTCTGCAGCCTGTGCTACGGCGACATGGAGAACAAGCTGTTTGCGGGGATTCGGCGGGACGGGCTGCTCCTGCGTTTGGTGGATGATTTCTTGTTGGTGACACCTCACCTCACCCACGCGAAAACCTTCCTCAGGACCCTGGTCCGAGGTGTCCCTGAGTATGGCTGCGTGGTGAACTTGCGGAAGACAGTGGTGAACTTCCCTGTAGAAGACGAGGCCCTGGGTGGCACGGCTTTTGTTCAGATGCCGGCCCACGGCCTATTCCCCTGGTGCGGCCTGCTGCTGGATACCCGGACCCTGGAGGTGCAGAGCGACTACTCCAGCTATGCCCGGACCTCCATCAGAGCCAGTCTCACCTTCAACCGCGGCTTCAAGGCTGGGAGGAACATGCGTCGCAAACTCTTTGGGGTCTTGCGGCTGAAGTGTCACAGCCTGTTTCTGGATTTGCAGGTGAACAGCCTCCAGACGGTGTGCACCAACATCTACAAG
modifications: Human
T-cell response to autologous DC transduced with individual clones [4]: strong T-cell response
